In one experiment the test system is HepG2 cells. The experiment can be described thus: Mammalian cell cytotoxicity assay (CellTiter-Glo). The format is cell-based, human. As to conditions: Homo sapiens; -logIC50 mol against HepG2; read-out: PIC50 HepG2 (converted).
As for `N#Cc1ccc(C=C(C(=O)Nc2ccccc2Cl)C(=O)Nc2ccccc2Cl)cc1` [ST/786454], the IC50 was 3.63 µM.
For the compound `CCCc1cc(=O)[nH]c(Nc2cc(Cl)cc(Cl)c2)n1` [ST/826453], the IC50 was 14.1 µM.
Consider `Clc1ccc(Cn2nnc(-c3ccc(CN4CCOCC4)cc3)n2)cc1` [ST/852088], for which the IC50 was more than 100 µM.
Regarding `COc1cc([N+](=O)[O-])ccc1NC(=O)Nc1ccc(OC(F)(F)F)cc1` [ST/871026], the IC50 is 13.2 µM.
Consider `Cc1ccc(NC(=O)Nc2ccc(Cl)c([N+](=O)[O-])c2)cc1` [ST/875327], for which the IC50 is 22.9 µM.
`O=C(Nc1nnc(-c2ccccc2)o1)c1ccc2c(c1)CCCC2` [ST/912241]: the IC50 is more than 100 µM.
Regarding `CC1(C)CCC(=Cc2ccc(Cl)cc2)CC1(O)Cn1ccnc1` (stereo not shown) [ST/1098001], the IC50 is 46.8 µM.
Turning to `COC1(C)CCC(=Cc2ccc(Cl)cc2)CC1(O)Cn1ccnc1` (stereo not shown) [ST/1099846], the IC50 was 72.4 µM.
Consider `O=C(Nc1ccc2scnc2c1)c1ccc(Cl)s1` [ST/1127597], for which the IC50 is 97.7 µM.
Take `Cc1ccccc1C(=O)N(Cc1cccnc1)c1nc2c(F)cccc2s1` [ST/1131244]: the IC50 is 52.5 µM.
Take `O=C(Nc1cc(-c2nc3ccccc3[nH]2)ccc1Cl)c1ccc(Cl)c([N+](=O)[O-])c1` [ST/1193938]: the IC50 is 22.9 µM.
With `N#Cc1nc(-c2ccccc2)oc1S(=O)(=O)c1ccc(Br)cc1` [ST/1197083], the IC50 is 60.3 µM.
With `O=C(Nc1ccc(Cl)c(Cl)c1)Nc1ccc(F)c([N+](=O)[O-])c1` [ST/1276812], the IC50 was 10 µM.
`O=C(Nc1ccc2ncsc2c1)c1ccc(Br)s1` [ST/1280764]: the IC50 is more than 100 µM.
`COc1ccccc1-c1nn(-c2c(C)cccc2C)c2[nH]c(=O)cc(C(F)(F)F)c12` [ST/1471361]: the IC50 is more than 100 µM.
For the compound `OCc1ccn2nc(-c3ccc(F)cc3)c(-c3ccncc3)c2c1` [U11871/14/3], the IC50 is more than 100 µM.
Same read-out and setting: for `O=[N+]([O-])c1ccc(NS(=O)(=O)c2ccccc2)c(-c2ccccc2)c1` [VDPP/14/72/1] the value was 35.5 µM.

Still in this experiment, the particulars now being: selectivity, pIC50 axenic minus pIC50 HepG2.
As to `CCCc1cc(=O)[nH]c(Nc2cc(Cl)cc(Cl)c2)n1` [ST/826453], the “pSI v HepG2” value is 0.20.
Consider `Clc1ccc(Cn2nnc(-c3ccc(CN4CCOCC4)cc3)n2)cc1` [ST/852088], for which the “pSI v HepG2” value was determined as 1.49.
The same measure, in the same setting: for `COc1cc([N+](=O)[O-])ccc1NC(=O)Nc1ccc(OC(F)(F)F)cc1` [ST/871026] the value was 0.28.
As for `Cc1ccc(NC(=O)Nc2ccc(Cl)c([N+](=O)[O-])c2)cc1` [ST/875327], the “pSI v HepG2” value turned out to be 0.38.
Same read-out and setting: under `O=C(Nc1nnc(-c2ccccc2)o1)c1ccc2c(c1)CCCC2` [ST/912241] stands 1.91; under `OCc1ccn2nc(-c3ccc(F)cc3)c(-c3ccncc3)c2c1` [U11871/14/3], 1.72; under `O=[N+]([O-])c1ccc(NS(=O)(=O)c2ccccc2)c(-c2ccccc2)c1` [VDPP/14/72/1], 0.85.

Still in this experiment, the particulars now being: selectivity: pIC50 axenic minus pIC50 HepG2.
For `N#Cc1ccc(C=C(C(=O)Nc2ccccc2Cl)C(=O)Nc2ccccc2Cl)cc1` [ST/786454], the “pSI v HepG2” value stood at 1.69.
Still for that read-out and setting: under `CC1(C)CCC(=Cc2ccc(Cl)cc2)CC1(O)Cn1ccnc1` (stereo not shown) [ST/1098001] stands 0.93.
For the compound `COC1(C)CCC(=Cc2ccc(Cl)cc2)CC1(O)Cn1ccnc1` (stereo not shown) [ST/1099846], the “pSI v HepG2” value amounted to 1.39.
The same measure, in the same setting: for `O=C(Nc1ccc2scnc2c1)c1ccc(Cl)s1` [ST/1127597] the value was 1.18; for `Cc1ccccc1C(=O)N(Cc1cccnc1)c1nc2c(F)cccc2s1` [ST/1131244], 0.81; for `O=C(Nc1cc(-c2nc3ccccc3[nH]2)ccc1Cl)c1ccc(Cl)c([N+](=O)[O-])c1` [ST/1193938], 0.42.
Take `N#Cc1nc(-c2ccccc2)oc1S(=O)(=O)c1ccc(Br)cc1` [ST/1197083]: the “pSI v HepG2” value worked out at 2.22.
In the case of `O=C(Nc1ccc(Cl)c(Cl)c1)Nc1ccc(F)c([N+](=O)[O-])c1` [ST/1276812], the “pSI v HepG2” value stood at 0.45.
As for `O=C(Nc1ccc2ncsc2c1)c1ccc(Br)s1` [ST/1280764], the “pSI v HepG2” value stood at 1.16.
Regarding `COc1ccccc1-c1nn(-c2c(C)cccc2C)c2[nH]c(=O)cc(C(F)(F)F)c12` [ST/1471361], the “pSI v HepG2” value was 1.10.

In another experiment the test system is L. donovani (MHOM/SD/62/1S-CL2D, LdBOB) axenic amastigotes. The experiment can be described thus: Leishmania donovani axenic amastigote dose response assay (resazurin). It is filed as cell-based. The following applies: -logIC50 mol against L. donovani (LdBOB) axenic amastigotes, read-out: pIC50 Axenic (converted).
As to `N#Cc1ccc(C=C(C(=O)Nc2ccccc2Cl)C(=O)Nc2ccccc2Cl)cc1` [ST/786454], the IC50 is 0.0741 µM.
`CCCc1cc(=O)[nH]c(Nc2cc(Cl)cc(Cl)c2)n1` [ST/826453]: the IC50 is 8.91 µM.
On to `Clc1ccc(Cn2nnc(-c3ccc(CN4CCOCC4)cc3)n2)cc1` [ST/852088], for which the IC50 is 3.24 µM.
Take `COc1cc([N+](=O)[O-])ccc1NC(=O)Nc1ccc(OC(F)(F)F)cc1` [ST/871026]: the IC50 is 6.92 µM.
Turning to `Cc1ccc(NC(=O)Nc2ccc(Cl)c([N+](=O)[O-])c2)cc1` [ST/875327], the IC50 is 9.55 µM.
Turning to `O=C(Nc1nnc(-c2ccccc2)o1)c1ccc2c(c1)CCCC2` [ST/912241], the IC50 was 1.23 µM.
`CC1(C)CCC(=Cc2ccc(Cl)cc2)CC1(O)Cn1ccnc1` (stereo not shown) [ST/1098001]: the IC50 was 5.5 µM.
On to `COC1(C)CCC(=Cc2ccc(Cl)cc2)CC1(O)Cn1ccnc1` (stereo not shown) [ST/1099846], for which the IC50 was 2.95 µM.
In the case of `O=C(Nc1ccc2scnc2c1)c1ccc(Cl)s1` [ST/1127597], the IC50 was 6.46 µM.
Turning to `Cc1ccccc1C(=O)N(Cc1cccnc1)c1nc2c(F)cccc2s1` [ST/1131244], the IC50 is 8.13 µM.
Same read-out and setting: for `O=C(Nc1cc(-c2nc3ccccc3[nH]2)ccc1Cl)c1ccc(Cl)c([N+](=O)[O-])c1` [ST/1193938] the value was 8.71 µM; for `N#Cc1nc(-c2ccccc2)oc1S(=O)(=O)c1ccc(Br)cc1` [ST/1197083], 0.363 µM; for `O=C(Nc1ccc(Cl)c(Cl)c1)Nc1ccc(F)c([N+](=O)[O-])c1` [ST/1276812], 3.55 µM.
As to `O=C(Nc1ccc2ncsc2c1)c1ccc(Br)s1` [ST/1280764], the IC50 was 6.92 µM.
For the compound `COc1ccccc1-c1nn(-c2c(C)cccc2C)c2[nH]c(=O)cc(C(F)(F)F)c12` [ST/1471361], the IC50 is 7.94 µM.
Still for that read-out and setting: for `OCc1ccn2nc(-c3ccc(F)cc3)c(-c3ccncc3)c2c1` [U11871/14/3] the value was 1.91 µM.
With `O=[N+]([O-])c1ccc(NS(=O)(=O)c2ccccc2)c(-c2ccccc2)c1` [VDPP/14/72/1], the IC50 was 5.01 µM.

The next experiment deals with THP-1 macrophages. Put plainly: Host cell toxicity in the intramacrophage assay. As to conditions: Homo sapiens; THP-1 host cells in intramacrophage assay; read-out: pIC50 THP-1 (converted). It is filed as cell-based, human.
On to `COC1(C)CCC(=Cc2ccc(Cl)cc2)CC1(O)Cn1ccnc1` (stereo not shown) [ST/1099846], for which the IC50 was more than 50.1 µM.

Another experiment deals with intra-macrophage Leishmania donovani amastigotes. The experiment can be described thus: Intramacrophage Leishmania donovani assay (high content imaging). It is filed as cell-based. As to conditions: Leishmania donovani; −logIC50 M; L. donovani infected THP-1 macrophages, 96 hours; read-out: pIC50 against intra-macrophage L. donovani amastigotes (converted).
Regarding `NC(=O)c1ccsc1NC(=O)c1ccc([N+](=O)[O-])s1` [compound 3], the IC50 was 2 µM.
Regarding `CNC(=O)c1ccsc1NC(=O)c1ccc([N+](=O)[O-])s1` [compound 4], the IC50 is 1.26 µM.
Still for that read-out and setting: for `N#Cc1ccc(N2CCCC[C@H]2c2cccnc2)c([N+](=O)[O-])c1` [compound 5] the value was 2 µM.

The record behind these values is publication PMC5834442, “Identifying inhibitors of the Leishmania inositol phosphorylceramide synthase with antiprotozoal activity using a yeast-based assay and ultra-high throughput screening platform” (Scientific Reports, 2018).
